Source: the NIST ThermoML archive (doi:10.1021/acs.jced.7b00866)

Conditions: Liquid, Capillary tube (Ostwald / Ubbelohde) method

CCCCCCCCCCCC [dodecane]
Conditions | viscosity [mPa·s]
298.2 K, 6020 kPa | 1.461
298.2 K, 8050 kPa | 1.497
298.2 K, 10020 kPa | 1.533
303.3 K, 10020 kPa | 1.394
303.4 K, 8050 kPa | 1.365
304.9 K, 6020 kPa | 1.348
313.3 K, 10020 kPa | 1.184
313.4 K, 8000 kPa | 1.162
314.5 K, 5990 kPa | 1.135
323.1 K, 8010 kPa | 1.007
323.4 K, 6050 kPa | 0.9748
323.4 K, 10000 kPa | 1.021
333.3 K, 8030 kPa | 0.8787
333.4 K, 10000 kPa | 0.8918
334.1 K, 6010 kPa | 0.8555
343.2 K, 8070 kPa | 0.7787
343.3 K, 5990 kPa | 0.7562
343.3 K, 10010 kPa | 0.79
353.4 K, 6080 kPa | 0.6746
353.4 K, 9980 kPa | 0.703
353.6 K, 8020 kPa | 0.6919
363.3 K, 10050 kPa | 0.6332
363.7 K, 8020 kPa | 0.6209
364 K, 6040 kPa | 0.6028
373.1 K, 10070 kPa | 0.5743
373.9 K, 8020 kPa | 0.5622
374 K, 6000 kPa | 0.5462
383 K, 6010 kPa | 0.5011
383.2 K, 10000 kPa | 0.523
383.4 K, 8050 kPa | 0.5137
393 K, 10020 kPa | 0.4798
393.1 K, 6080 kPa | 0.4584
393.6 K, 8030 kPa | 0.4694
403 K, 6040 kPa | 0.4213
403.1 K, 10040 kPa | 0.4407
404.1 K, 8020 kPa | 0.4304
412.9 K, 10010 kPa | 0.4076
413.2 K, 6080 kPa | 0.3885
413.7 K, 7990 kPa | 0.3987
423 K, 6080 kPa | 0.3581
423.4 K, 10000 kPa | 0.3765
423.9 K, 8050 kPa | 0.3686
432.9 K, 10020 kPa | 0.3504
433.2 K, 6010 kPa | 0.3334
433.3 K, 8000 kPa | 0.3405
443.2 K, 10050 kPa | 0.3257
443.5 K, 6020 kPa | 0.3092
443.5 K, 8010 kPa | 0.3152
453.3 K, 6020 kPa | 0.2855
453.3 K, 9950 kPa | 0.3036
454 K, 8040 kPa | 0.2936
463.3 K, 10010 kPa | 0.2839
463.4 K, 6040 kPa | 0.2664
464.1 K, 8020 kPa | 0.2738
473.3 K, 10050 kPa | 0.2657
473.4 K, 6040 kPa | 0.251
473.5 K, 8010 kPa | 0.2525
483.4 K, 6050 kPa | 0.2305
483.4 K, 8080 kPa | 0.2405
483.4 K, 10000 kPa | 0.2489
493.2 K, 10050 kPa | 0.2338
493.4 K, 6040 kPa | 0.216
493.4 K, 8010 kPa | 0.2247
502.7 K, 7960 kPa | 0.2075
503.2 K, 10010 kPa | 0.2197
503.4 K, 6080 kPa | 0.2005
513 K, 8040 kPa | 0.1945
513 K, 10000 kPa | 0.207
514.2 K, 6050 kPa | 0.186
523 K, 8000 kPa | 0.1822
523.7 K, 5970 kPa | 0.1737
523.7 K, 10040 kPa | 0.1949
533.3 K, 8040 kPa | 0.1736
533.5 K, 6040 kPa | 0.1638
533.5 K, 10070 kPa | 0.1825
542.9 K, 6010 kPa | 0.1526
542.9 K, 8060 kPa | 0.1603
542.9 K, 9950 kPa | 0.1682
552.9 K, 6070 kPa | 0.1419
552.9 K, 10020 kPa | 0.158
553.2 K, 8010 kPa | 0.1506
563 K, 6050 kPa | 0.1337
563 K, 8020 kPa | 0.1414
563 K, 10020 kPa | 0.1509
573 K, 6010 kPa | 0.124
573 K, 8020 kPa | 0.1347
573 K, 10040 kPa | 0.1437
582.8 K, 6000 kPa | 0.1159
582.8 K, 10010 kPa | 0.132
582.9 K, 7960 kPa | 0.1265
592.9 K, 8070 kPa | 0.12
593 K, 6020 kPa | 0.1104
593 K, 10000 kPa | 0.1263
602.9 K, 8020 kPa | 0.1128
603.1 K, 6010 kPa | 0.1048
603.1 K, 10010 kPa | 0.1186
612.9 K, 8020 kPa | 0.1058
613.1 K, 6040 kPa | 0.0969
613.1 K, 10010 kPa | 0.1116
623 K, 7990 kPa | 0.1003
623.2 K, 6050 kPa | 0.0908
623.2 K, 10050 kPa | 0.1056
632.8 K, 8040 kPa | 0.0933
633.5 K, 6020 kPa | 0.0848
633.5 K, 10010 kPa | 0.0992
643 K, 8050 kPa | 0.0878
643.4 K, 6020 kPa | 0.0789
643.4 K, 10010 kPa | 0.0943
652.9 K, 8020 kPa | 0.0824
653.4 K, 6070 kPa | 0.0733
653.4 K, 10040 kPa | 0.087
663.1 K, 8010 kPa | 0.0775
663.2 K, 6010 kPa | 0.0682
663.2 K, 10050 kPa | 0.0823
672.9 K, 8010 kPa | 0.0727
673.5 K, 6040 kPa | 0.0635
673.5 K, 9980 kPa | 0.0785
683.2 K, 8050 kPa | 0.0685
683.2 K, 10040 kPa | 0.0746
683.3 K, 6010 kPa | 0.059
693.2 K, 6010 kPa | 0.0548
693.2 K, 8020 kPa | 0.0643
693.2 K, 10010 kPa | 0.0712
